Laboratory results as given in US5968932A, “Method of inhibiting sleep apnea” (Gruenenthal GmbH, priority 1998, dated 1999).

Key:
[1] = tested on: standard English bulldog test model; experiment: English bulldog test model of obstructive sleep apnea (hypersomnolence and sleep disordered breathing), Example 1; type: in vivo; conditions: 100 μg/kg i.v.; for Sleep disordered breathing index (SDBI): REM events per REM time/60 min; for Total sleep time (TST): eight hour observation
Experimental: Five bulldogs were implanted with subcutaneous electroencephalogram (EEG) electrodes and instrumented with respiratory oscillation belts (Respitrace™) to measure abdominal and ribcage movements and with an ear oximeter to measure oxygen saturation (SaO2). […] Montirelin in a sterile saline vehicle was administered intravenously to the test animals at a dosage of 100 μg/kg. Each test with active substance was preceded by a control day in which only the saline vehicle was administered. The effect of Montirelin on hypersomnolence and sleep disordered breathing was assessed.
Hypersomnolence was determined by sleep latency and total sleep time. Total sleep time (TST) is expressed as a percentage calculated by dividing the total sleep time in minutes by the total study time in minutes and multiplying the resulting quotient by 100 according to the formula: [formula]
Sleep latency was defined as the total minutes until the onset of non-REM sleep.
Sleep disordered breathing was evaluated in terms of a sleep disordered breathing index (SDBI) defined as the total number of rapid eye movement (REM) events divided by a quantity equal to the total REM time divided by 60 minutes according to the formula: [formula] A REM event (apnea) is defined as an incident of decreased or absent respiration and a decrease of 4% or more in the saturated blood oxygen (SaO2) level occurring during REM sleep.

[2] = tested on: bulldog with moderately severe obstructive sleep apnea; experiment: Dose study in one bulldog with moderately severe obstructive sleep apnea, Example 2; type: in vivo; conditions: for non-REM sleep RDI (respiratory disturbance incidents): saline control 6; for Arousal index: saline control 12; for REM sleep RDI (respiratory disturbance incidents): saline control 44; for Lowest O2 saturation: saline control 89; for Mean sleep efficiency: six hours, saline control 39%
Experimental: In a further experiment, Montirelin was administered on different days at varying dosage levels to one bulldog with moderately severe obstructive sleep apnea. In this bulldog, a double-blind study was conducted in which saline was administered as a control and four different doses of Montirelin (100 mg/kg, 200 mg/kg, 400 mg/kg and 800 mg/kg) were administered. The dog was studied on four different days at each dose of the active compound. […] The order of different doses of drug or saline control was randomized, and a wash-out period of two days was allowed after study of a particular dose. During the studies, respiratory movement, oxygen saturation and electroencephalogram for sleep state were measured. The number of sleep-disordered breathing events or respiratory disturbance incidents (RDI) per hour was calculated according to the formula given above both for non-rapid eye movement (non-REM) sleep, which occupies the majority of sleep time, and rapid eye movement (REM) sleep. Mean sleep efficiency and arousal index were also determined.

Sprague-Dawley rats = experiment: Subacute repeated-dose (five weeks) intravenous toxicity with four-week recovery study in rats; type: in vivo, Sprague-Dawley rats (SPF Slc:SD)
Experimental: The subacute repeated-dose intravenous toxicity of Montirelin was investigated in Sprague-Dawley rats treated repeatedly at 0.05, 0.5,5 and 50 mg/kg/day for five weeks, and the reversibility of its toxic effects was also investigated by a four-week recovery study.
[…] SPF Slc:SD rats of both sexes (age: four weeks, body weight: 70.0-81.6 g) were purchased from Shizuoka Agriculture Cooperative Association for Laboratory Animals. During a one-week quarantine/acclimation period, the animals were measured for body weight and observed for any general symptoms, and healthy animals showing normal growth were selected and used in the experiment at the age of five weeks.
Males and females were used in five groups (including the control group) of 10 animals/sex, and additional 10 animals/sex were added to the control, 0.5 mg/kg and 50 mg/kg groups to investigate the reversibility of the toxic effect of the test substance. All these animals were randomized to each group by weight stratification so that the differences in initial mean body weight were within 2% between groups. At the start of the treatment, the body weight was 116.5-132.9 g for males and 107.0-123.4 g for females.
The maximal dose was set at […] lower doses were set at 5, 0.5 and 0.05 mg/kg using a common ratio of 1/10. This study also included the vehicle control group.
Dosing solutions were prepared by dissolving a weighed amount of the test substance in physiological saline at a concentration of 1 W/V % using a volumetric flask. Lower dosing solutions were obtained by successive 10-fold dilution of the initial solution. The respective dosing solution was repeatedly administered intravenously once daily for 35 days into the tail vein at a rate of 0.2 ml/10 sec. using a 1/4 syringe for injection. The treatment was given at a constant volume of 0.5 ml/100 g body weight in all dose groups, and the control group was treated with physiological saline at the same volume in the same manner.
Clinical signs in all animals were observed daily between two and four hours after dosing according to Irwin's method of comprehensive observational assessment, and the type, severity, onset time and disappearance time of toxic symptoms were recorded. During the recovery period, the clinical observation was performed once daily in the morning in the same manner. The body weight, food consumption and water consumption were measured in all animals three times weekly in the morning throughout the treatment and recovery periods and recorded.

## C[C@H]1SC[C@@H](C(=O)N[C@@H](Cc2c[nH]cn2)C(=O)N2CCC[C@H]2C(N)=O)NC1=O.O.O.O.O [Montirelin, (3R, 6R) -N-[(6-methyl-5-oxo-3-thiomorpholinyl)carbonyl]-L-histidyl-L-prolinamide tetrahydrate]
[1]; versus saline control
  Awakening / sleep pattern, result in words: awaken less frequently and thus exhibit markedly better consolidated sleep patterns
  Reduction in sleep disordered breathing: approximately 50%
  Sleep depth, result in words: sleep may be somewhat shallower
  Total sleep time, result in words: only a slight reduction in total sleep time
[1]; Average of 5 dogs, saline control 15.9 ± 11
  Sleep disordered breathing index (SDBI), average: 8.7 ± 10
[1]; Average of 5 dogs, saline control 20.9 ± 8.3
  Total sleep time (TST), average: 16.4 ± 8.5%
[1]; Average of 5 dogs, saline control 91.4 ± 14
  Sleep latency, average: 142 ± 61.4 min
[1]; Test dog 1
  Sleep latency (minutes until onset of non-REM sleep): 47 min
  Sleep disordered breathing index (SDBI): 7.2
  Total sleep time (TST): 18.5%
[1]; Test dog 2
  Sleep latency (minutes until onset of non-REM sleep): 149 min
  Sleep disordered breathing index (SDBI): 8.2
  Total sleep time (TST): 17.0%
[1]; Test dog 3
  Sleep latency (minutes until onset of non-REM sleep): 145 min
  Sleep disordered breathing index (SDBI): 2.6
  Total sleep time (TST): 26.7%
[1]; Test dog 4
  Sleep latency (minutes until onset of non-REM sleep): 150 min
  Sleep disordered breathing index (SDBI): 0.0
  Total sleep time (TST): 17.0%
[1]; Test dog 5
  Sleep latency (minutes until onset of non-REM sleep): 219 min
  Sleep disordered breathing index (SDBI): 25.7
  Total sleep time (TST): 3.0%
[2]; 100 mg/kg i.v.
  non-REM sleep RDI (respiratory disturbance incidents): 8 per hour
  Arousal index: 16
  REM sleep RDI (respiratory disturbance incidents): 53 per hour
  Lowest O2 saturation: 92
  Mean sleep efficiency: 41%
[2]; 200 mg/kg and above, i.v.
  non-REM sleep-disordered breathing events, result in words: significant reduction in non-REM sleep-disordered breathing events
[2]; 200 mg/kg i.v., p < 0.05
  non-REM sleep RDI (respiratory disturbance incidents): 0 per hour
[2]; 200 mg/kg i.v.
  Arousal index: 7
  REM sleep RDI (respiratory disturbance incidents): 70 per hour
  Lowest O2 saturation: 86
  Mean sleep efficiency: 37%
[2]; 400 mg/kg and 800 mg/kg, i.v.
  REM sleep occurrence, result in words: the animal did not enter REM sleep
[2]; 400 mg/kg i.v.
  non-REM sleep RDI (respiratory disturbance incidents): 4 per hour
  Arousal index: 12
  Lowest O2 saturation: 92
  Mean sleep efficiency: 40%
[2]; 800 mg/kg i.v., p < 0.05
  non-REM sleep RDI (respiratory disturbance incidents): 2 per hour
  Arousal index: 6
[2]; 800 mg/kg i.v.
  Lowest O2 saturation: 93
  Mean sleep efficiency: 38%
[2]; 100 to 800 mg/kg i.v.
  Dose dependence of non-REM breathing-decline episodes, result in words: dose-dependent reduction in the number of episodes where breathing declines during non-REM sleep
[2]; i.v., versus saline
  Number of arousals per hour, result in words: did reduce the number of arousals per hour
  Oxyhemoglobin saturation during breathing episodes, result in words: no effect on oxyhemoglobin saturation during breathing episodes
  Sleep efficiency, result in words: did not affect sleep efficiency
[2]; lower dose levels, i.v.
  REM sleep RDI, result in words: there does not appear to have been an impact on REM sleep RDI
Sprague-Dawley rats; 5 mg/kg/day or above i.v., from day 2-3 until about week 4
  Water consumption: increased in both sexes
Sprague-Dawley rats; 5 mg/kg/day or higher i.v.
  Day by which polyuria disappeared: 4 to 28 days
Sprague-Dawley rats; 5 mg/kg/day or higher i.v., from day 0-3
  Time of polyuria peak: peaked at about one hour after dosing
Sprague-Dawley rats; 5 mg/kg/day or higher i.v., males and females
  Transient polyuria: almost all males and females showed transient polyuria
Sprague-Dawley rats; 0.05, 0.5, 5 and 50 mg/kg/day i.v., administration and recovery periods
  Mortality: no death occurred
Sprague-Dawley rats; 50 mg/kg/day i.v., both sexes
  Hematological changes relative to normal range: within the range of normal physiological variations
  Red blood cell count, hemoglobin and hematocrit: increasing tendency in red blood cell count, hemoglobin and hematocrit
  Total white blood cell count: decreasing tendency in total white blood cell count
Sprague-Dawley rats; 50 mg/kg/day i.v., both sexes, from day 0
  Systemic tremor: systemic tremor was observed transiently during the injection in both sexes
Sprague-Dawley rats; 50 mg/kg/day i.v., females
  Day by which systemic tremor disappeared: ≤ 4 days
Sprague-Dawley rats; 50 mg/kg/day i.v., males
  Day by which systemic tremor disappeared: ≤ 6 days
Sprague-Dawley rats; after discontinuing administration, four-week recovery
  Reversibility of observed changes: All observed changes were reversed by discontinuing administration
Sprague-Dawley rats; both sexes, all treatment groups, i.v.
  Incidence of hypertrophy of serous cells in the submaxillary gland (histopathology): showed dose-dependency in both sexes of all treatment groups
Sprague-Dawley rats; females, i.v.
  Food consumption and body weight changes: unremarkable
Sprague-Dawley rats; i.v.
  Blood biochemical parameters: No treatment-related abnormalities were observed
  Gross changes at autopsy: no treatment-related grossly abnormal changes
  Histopathology of other organs (light microscopy): no remarkable changes were shown at the light microscopic level
  Liver and kidney electron microscopical examination: nor were there any abnormal changes in the liver or kidney
  Other hematological parameters: not related to the dose
  Urinary findings (other than urine volume): unremarkable
Sprague-Dawley rats; i.v., administration and recovery periods
  Other clinical signs: no other remarkable clinical signs
Sprague-Dawley rats; males and females, 5 mg/kg/day or above i.v., week 2 and 5
  Urine volume: increase in urine volume
Sprague-Dawley rats; males, particularly 0.5, 5 and 50 mg/kg/day i.v.
  Body weight gain: body weight gain was suppressed in males
Sprague-Dawley rats; treated males, versus control males, i.v.
  Food consumption: tended to decrease food consumption
